The record followed here is BindingDB's records for doi:10.7270/Q24T6GTZ (Burnham Center For Chemical Genomics, 2010).

Bounds are passed on as bounds.

The test has as its target Kappa-type opioid receptor (Homo sapiens, UniProt P41145). Kind of test: KOR agonist analogs, imaging readout, SAR follow-up, image-based (AID 2359).

Kappa-type opioid receptor, sequence (P41145 whole entry): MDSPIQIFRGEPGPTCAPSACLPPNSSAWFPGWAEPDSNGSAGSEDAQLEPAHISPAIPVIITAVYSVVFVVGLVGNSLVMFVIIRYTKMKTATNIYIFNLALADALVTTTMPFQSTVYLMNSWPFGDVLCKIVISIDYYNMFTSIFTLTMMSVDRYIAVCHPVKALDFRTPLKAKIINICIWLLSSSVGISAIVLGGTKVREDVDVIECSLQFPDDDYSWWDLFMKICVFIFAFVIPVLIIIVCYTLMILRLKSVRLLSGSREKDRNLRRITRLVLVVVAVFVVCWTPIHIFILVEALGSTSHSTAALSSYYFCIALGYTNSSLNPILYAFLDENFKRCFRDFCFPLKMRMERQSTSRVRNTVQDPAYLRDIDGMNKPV

In the case of `CCC(N=Nc1ccnc2cc(Cl)ccc12)c1ccc(O)cc1` (configuration not stated) [4-[1-[2-(7-chloroquinolin-4-yl)hydrazinyl]propylidene]cyclohexa-2,5-dien-1-one], the half-maximal effective concentration (EC50) is > 32 µM.

On to `Oc1ccc(CN=Nc2ccnc3cc(Cl)ccc23)cc1O` [(4Z)-4-[[2-(7-chloroquinolin-4-yl)hydrazinyl]methylidene]-2-hydroxycyclohexa-2,5-dien-1-one], for which the EC50 was > 32 µM.
